Experimental data published in ChEMBL document CHEMBL3860101, “Targeting the Nerve Growth Factor (NGF) Pathway in Drug Discovery. Potential Applications to New Therapies for Chronic Pain” (J Med Chem, 2017).
One block for each molecule: values may come before it.

Columns and labels:
[1] = molecular target: T1, High affinity nerve growth factor receptor (Homo sapiens, UniProt P04629); assay: Inhibition of His-tagged recombinant human TrkA using Alexa-Fluor tracer-236 incubated for 60 mins by TR-FRET based Lantha-screen Eu kinase binding assay
Target sequence in this assay (P04629 whole entry): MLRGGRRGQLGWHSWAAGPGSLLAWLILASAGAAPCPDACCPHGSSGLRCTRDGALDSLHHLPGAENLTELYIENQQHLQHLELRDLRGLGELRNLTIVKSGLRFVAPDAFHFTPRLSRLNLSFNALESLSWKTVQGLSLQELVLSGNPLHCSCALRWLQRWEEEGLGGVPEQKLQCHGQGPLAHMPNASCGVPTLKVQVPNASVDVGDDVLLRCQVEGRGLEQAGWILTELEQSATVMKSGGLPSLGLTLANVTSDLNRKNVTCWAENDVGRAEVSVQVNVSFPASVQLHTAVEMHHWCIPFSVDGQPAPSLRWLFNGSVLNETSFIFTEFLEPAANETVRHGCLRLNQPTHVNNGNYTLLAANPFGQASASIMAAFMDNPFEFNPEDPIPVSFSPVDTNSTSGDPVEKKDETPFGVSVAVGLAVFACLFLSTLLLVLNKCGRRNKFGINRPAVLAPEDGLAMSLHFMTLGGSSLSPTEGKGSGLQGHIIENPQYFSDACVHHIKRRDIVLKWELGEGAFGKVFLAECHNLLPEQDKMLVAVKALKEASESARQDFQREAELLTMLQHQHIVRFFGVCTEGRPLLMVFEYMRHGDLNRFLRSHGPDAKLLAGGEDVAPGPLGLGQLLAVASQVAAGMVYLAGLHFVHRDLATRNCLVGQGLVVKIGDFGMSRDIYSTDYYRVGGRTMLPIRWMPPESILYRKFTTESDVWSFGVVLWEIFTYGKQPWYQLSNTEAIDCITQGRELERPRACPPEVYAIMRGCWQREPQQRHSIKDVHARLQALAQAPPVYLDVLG

[2] = molecular target: T2, BDNF/NT-3 growth factors receptor (Homo sapiens, UniProt Q16620); assay: Inhibition of His6 tagged human recombinant TrkB (455 to end amino acids) expressed in Sf21 cells at 10 uM
Target sequence in this assay (Q16620 32-822 limits assumed): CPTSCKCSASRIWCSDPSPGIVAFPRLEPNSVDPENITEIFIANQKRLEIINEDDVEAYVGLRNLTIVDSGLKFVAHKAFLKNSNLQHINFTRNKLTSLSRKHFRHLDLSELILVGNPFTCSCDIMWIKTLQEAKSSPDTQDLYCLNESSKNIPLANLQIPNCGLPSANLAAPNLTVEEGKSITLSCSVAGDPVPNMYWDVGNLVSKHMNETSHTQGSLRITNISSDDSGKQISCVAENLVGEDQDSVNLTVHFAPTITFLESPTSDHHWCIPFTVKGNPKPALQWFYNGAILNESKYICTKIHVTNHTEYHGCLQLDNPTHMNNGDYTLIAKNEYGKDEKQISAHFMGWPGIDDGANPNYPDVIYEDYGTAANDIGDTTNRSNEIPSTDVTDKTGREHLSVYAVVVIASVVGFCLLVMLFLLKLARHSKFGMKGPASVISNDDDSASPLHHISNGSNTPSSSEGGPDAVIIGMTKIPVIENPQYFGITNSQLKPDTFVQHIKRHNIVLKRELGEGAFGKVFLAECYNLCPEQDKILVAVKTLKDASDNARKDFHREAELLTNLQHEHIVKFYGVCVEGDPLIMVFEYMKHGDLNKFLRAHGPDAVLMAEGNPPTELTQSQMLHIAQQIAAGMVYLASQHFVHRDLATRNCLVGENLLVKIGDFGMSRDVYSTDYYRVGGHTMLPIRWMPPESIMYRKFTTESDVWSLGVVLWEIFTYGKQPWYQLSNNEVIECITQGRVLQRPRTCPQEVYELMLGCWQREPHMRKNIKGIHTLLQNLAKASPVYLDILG

[3] = molecular target: T1, High affinity nerve growth factor receptor; assay: Inhibition of TrkA (unknown origin) by cell based assay
Target sequence in this assay (P04629 whole entry): as the sequence (P04629 whole entry) above

[4] = molecular target: T1, High affinity nerve growth factor receptor; assay: Inhibition of NGF-stimulated TrkA phosphorylation in human U2OS cells by beta-galactosidase reporter gene based PathHunter profiling assay; type: cell-based
Target sequence in this assay (P04629 whole entry): as above

[5] = molecular target: T2, BDNF/NT-3 growth factors receptor; assay: Inhibition of BDNF-stimulated TrkB phosphorylation in human U2OS cells by beta-galactosidase reporter gene based PathHunter profiling assay; type: cell-based
Target sequence in this assay (Q16620 whole entry): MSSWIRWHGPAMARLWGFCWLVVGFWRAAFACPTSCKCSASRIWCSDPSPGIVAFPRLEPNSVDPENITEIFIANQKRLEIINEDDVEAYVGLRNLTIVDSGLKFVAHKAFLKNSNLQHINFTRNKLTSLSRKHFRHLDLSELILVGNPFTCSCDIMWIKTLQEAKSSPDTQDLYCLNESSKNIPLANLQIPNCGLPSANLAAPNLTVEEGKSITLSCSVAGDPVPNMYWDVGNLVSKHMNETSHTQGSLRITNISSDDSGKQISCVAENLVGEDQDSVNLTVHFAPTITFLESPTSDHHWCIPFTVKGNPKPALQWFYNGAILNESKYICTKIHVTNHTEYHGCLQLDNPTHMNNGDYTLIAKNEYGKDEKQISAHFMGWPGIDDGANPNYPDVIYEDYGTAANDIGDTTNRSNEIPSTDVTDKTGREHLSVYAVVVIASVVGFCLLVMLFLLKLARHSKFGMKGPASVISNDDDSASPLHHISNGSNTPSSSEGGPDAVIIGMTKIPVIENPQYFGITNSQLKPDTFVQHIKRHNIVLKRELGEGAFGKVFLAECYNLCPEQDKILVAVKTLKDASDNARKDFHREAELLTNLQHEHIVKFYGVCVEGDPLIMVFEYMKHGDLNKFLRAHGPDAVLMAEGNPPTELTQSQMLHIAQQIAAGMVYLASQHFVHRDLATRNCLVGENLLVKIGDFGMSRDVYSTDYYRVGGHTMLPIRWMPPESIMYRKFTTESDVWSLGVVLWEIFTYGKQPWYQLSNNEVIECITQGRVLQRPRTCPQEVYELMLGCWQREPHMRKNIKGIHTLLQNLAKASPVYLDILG

[6] = molecular target: NT-3 growth factor receptor (Homo sapiens, UniProt Q16288); assay: Inhibition of NT3-stimulated TrkC phosphorylation in human U2OS cells by beta-galactosidase reporter gene based PathHunter profiling assay; type: cell-based
P-gp = assay: Binding affinity to P-gp (unknown origin) assessed as efflux ratio by cell based assay; type: ADME; conditions: human, not told
[7] = molecular target: T2, BDNF/NT-3 growth factors receptor; assay: Inhibition of N-terminal GST tagged human TrkB cytoplasmic domain (456 to 822 amino acids) pre-incubated for 15 mins before peptide substrate addition for 180 mins by fluorescence based assay
Target sequence in this assay (Q16620 whole entry): as above

[8] = molecular target: T1, High affinity nerve growth factor receptor; assay: Inhibition of N-terminal GST tagged human TrkA cytoplasmic domain (436 to 790 amino acids) pre-incubated for 15 mins before peptide substrate addition for 180 mins by fluorescence based assay
Target sequence in this assay (P04629 whole entry): as the sequence (P04629 whole entry) above

Rattus norvegicus [9] = assay: Inhibition of mechanical allodynia in it dosed rat model of L5/L6 nerve ligation injury; type: functional
[10] = molecular target: T3, Tumor necrosis factor receptor superfamily member 16 (Homo sapiens, UniProt P08138); assay: Inhibition of mouse NGF binding to p75 (unknown origin) by SPR method
T3 sequence (P08138 whole entry): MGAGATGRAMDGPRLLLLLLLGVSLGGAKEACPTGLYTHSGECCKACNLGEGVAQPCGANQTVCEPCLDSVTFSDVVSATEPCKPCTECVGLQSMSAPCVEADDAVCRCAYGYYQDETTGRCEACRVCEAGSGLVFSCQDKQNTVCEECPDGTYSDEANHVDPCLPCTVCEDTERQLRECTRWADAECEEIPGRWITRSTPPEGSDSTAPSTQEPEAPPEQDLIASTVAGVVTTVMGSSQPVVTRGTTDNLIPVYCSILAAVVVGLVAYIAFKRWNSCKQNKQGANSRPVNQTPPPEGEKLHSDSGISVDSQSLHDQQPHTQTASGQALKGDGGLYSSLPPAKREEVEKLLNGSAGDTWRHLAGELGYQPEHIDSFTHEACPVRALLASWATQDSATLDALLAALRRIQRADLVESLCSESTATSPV

[11] = molecular target: T4, High affinity nerve growth factor receptor (Rattus norvegicus, UniProt P35739); assay: Inhibition of binding of [125I]-NGF to TrkA in rat PC12 cells incubated for 2 hrs by gamma counting method; type: cell-based, PC-12
Beta-nerve growth factor = Beta-nerve growth factor (Mus musculus, UniProt P01139); assay: Inhibition of mouse NGF binding to TrkA (unknown origin) by SPR method; set-up: species or system Homo sapiens
[12] = molecular target: T4, High affinity nerve growth factor receptor; assay: Inhibition of NGF-induced TrkA auto-phosphorylation in rat PC12 cells incubated for 15 mins by chemiluminescence based method; type: cell-based, PC-12
[13] = molecular target: T5, Tumor necrosis factor receptor superfamily member 16 (Homo sapiens) (UniProt P08138); assay: Inhibition of mouse NGF binding to p75 (unknown origin) by SPR method relative to control
T5 sequence (whole entry): T3 sequence (P08138 whole entry)

Rattus norvegicus [14] = assay: Inhibition of mechanical allodynia ip dosed rat model of L5/L6 nerve ligation injury; type: functional
[15] = molecular target: T1, High affinity nerve growth factor receptor; assay: Inhibition of mouse NGF binding to TrkA (unknown origin) by SPR method relative to control
Target sequence in this assay (P04629 33-796 limits assumed): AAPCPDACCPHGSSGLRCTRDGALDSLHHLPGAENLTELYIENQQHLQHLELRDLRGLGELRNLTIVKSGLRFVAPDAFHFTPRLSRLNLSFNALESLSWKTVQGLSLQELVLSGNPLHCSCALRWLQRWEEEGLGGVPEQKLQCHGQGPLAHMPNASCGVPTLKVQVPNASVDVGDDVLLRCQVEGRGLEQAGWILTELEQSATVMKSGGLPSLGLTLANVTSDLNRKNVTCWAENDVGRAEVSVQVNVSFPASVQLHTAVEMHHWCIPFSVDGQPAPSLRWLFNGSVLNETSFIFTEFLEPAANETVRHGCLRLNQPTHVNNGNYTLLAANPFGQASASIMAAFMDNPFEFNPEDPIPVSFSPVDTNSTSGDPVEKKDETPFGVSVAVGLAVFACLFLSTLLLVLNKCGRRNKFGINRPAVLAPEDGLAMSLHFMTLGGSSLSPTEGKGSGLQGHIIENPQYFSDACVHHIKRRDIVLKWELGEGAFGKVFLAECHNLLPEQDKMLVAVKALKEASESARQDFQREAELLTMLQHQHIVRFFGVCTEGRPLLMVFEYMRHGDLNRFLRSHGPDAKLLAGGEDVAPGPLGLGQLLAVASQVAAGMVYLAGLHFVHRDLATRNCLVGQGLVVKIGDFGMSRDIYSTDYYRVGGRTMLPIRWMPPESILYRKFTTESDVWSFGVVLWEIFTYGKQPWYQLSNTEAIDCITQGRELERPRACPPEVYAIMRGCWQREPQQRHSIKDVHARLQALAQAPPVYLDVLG

Rattus norvegicus [16] = assay: Inhibition of thermal sensitization-induced tactile allodynia in it dosed rat model of L5/L6 nerve ligation injury; type: functional

Beta-nerve growth factor, sequence (P01139 whole entry, looked up): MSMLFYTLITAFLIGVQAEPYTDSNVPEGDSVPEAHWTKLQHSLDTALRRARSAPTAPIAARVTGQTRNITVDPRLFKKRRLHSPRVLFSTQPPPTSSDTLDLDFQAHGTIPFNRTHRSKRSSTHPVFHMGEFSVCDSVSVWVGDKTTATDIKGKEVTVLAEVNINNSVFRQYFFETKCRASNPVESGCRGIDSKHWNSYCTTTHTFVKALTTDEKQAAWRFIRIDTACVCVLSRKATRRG
T4 sequence (P35739 whole entry): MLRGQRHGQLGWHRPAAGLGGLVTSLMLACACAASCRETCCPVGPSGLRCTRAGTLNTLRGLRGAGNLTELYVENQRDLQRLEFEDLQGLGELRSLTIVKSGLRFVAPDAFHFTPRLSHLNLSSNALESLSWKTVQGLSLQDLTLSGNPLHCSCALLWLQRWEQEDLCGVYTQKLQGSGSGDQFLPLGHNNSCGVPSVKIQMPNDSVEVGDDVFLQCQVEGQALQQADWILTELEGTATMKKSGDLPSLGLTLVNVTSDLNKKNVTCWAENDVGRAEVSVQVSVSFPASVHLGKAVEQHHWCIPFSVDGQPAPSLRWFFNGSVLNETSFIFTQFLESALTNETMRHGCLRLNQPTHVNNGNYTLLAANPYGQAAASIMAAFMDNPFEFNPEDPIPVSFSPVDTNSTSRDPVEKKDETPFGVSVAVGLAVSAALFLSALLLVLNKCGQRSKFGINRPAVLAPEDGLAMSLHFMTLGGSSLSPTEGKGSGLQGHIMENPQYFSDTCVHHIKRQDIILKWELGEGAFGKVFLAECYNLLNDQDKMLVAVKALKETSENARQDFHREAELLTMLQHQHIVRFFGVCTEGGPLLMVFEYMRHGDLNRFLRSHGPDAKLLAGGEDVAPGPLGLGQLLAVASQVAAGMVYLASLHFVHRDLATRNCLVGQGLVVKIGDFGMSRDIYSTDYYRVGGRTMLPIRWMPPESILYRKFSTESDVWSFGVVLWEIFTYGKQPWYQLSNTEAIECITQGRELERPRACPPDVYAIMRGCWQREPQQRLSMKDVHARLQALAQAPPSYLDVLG

SMILES: O=C(O)c1ccc(Nc2cc(N3CCN(C4CCCCC4)CC3)c3noc4c3c2C(=O)c2ccccc2-4)cc1
IC50 [4]: 0.05 µM | IC50 [5]: > 10 µM | IC50 [6]: > 10 µM

SMILES: COc1ccc(C(=O)c2cn(C(C)C)c3ncnc(N)c23)cc1NC(=O)Nc1ccc(Cl)cc1Cl [CE-245677]
efflux ratio (P-gp): 1

SMILES: COc1ccc(COc2ccc(Cn3c(N)nc4cc(-c5cnn(C)c5)ccc43)cc2OC)cc1
IC50 [7]: 0.0003 µM | IC50 [8]: 0.0003 µM

SMILES: O=C1c2cccc3cc([N+](=O)[O-])cc(c23)C(=O)N1NCCO
ED50 (Rattus norvegicus [9]): 34.6 µg | IC50 [10]: > 300 µM | IC50 [11]: 5.88 µM | IC50 (Beta-nerve growth factor): 149 µM | EC50 [12]: 22 µM | Imax [13]: 6.2% | ED50 (Rattus norvegicus [14]): 38 mg/kg | Imax [15]: 44% | ED50 (Rattus norvegicus [16]): 50 µg

SMILES: Cc1cc2nc3c(=O)[nH]c(=O)nc-3n(C)c2cc1C=O
IC50 [10]: 244 µM | IC50 (Beta-nerve growth factor): 33 µM | Imax [13]: 37% | Imax [15]: 100%

SMILES: Cn1c2c(N)cc(N)cc2c(=O)n2nc(C(=O)O)c([N+](=O)[O-])c12
Imax [13]: 70%

The next lines start with results.

IC50 [1]: < 0.1 µM | inhibition [2]: 91%
SMILES: COCc1ccc2cccc(NC(=O)Nc3c(C)c(-c4cnn(C)c4)nn3-c3ccccc3)c2c1

IC50 [1]: < 0.1 µM | inhibition [2]: 97%
SMILES: Cc1c(-c2cnn(C)c2)nn(-c2ccccc2)c1NC(=O)Nc1sc(C(F)(F)F)nc1-c1ccccc1

IC50 [1]: < 0.1 µM
SMILES: Cc1c(-c2cnn(C)c2)nn(-c2ccccc2)c1NC(=O)Nc1cc(C(F)(F)F)nn1-c1ccccc1

IC50 [3]: 0.004 µM
SMILES: CC(=O)NCc1ncc(NC(=O)c2ccc(C(F)(F)F)c(-c3ccn(C)n3)c2)c(-c2ccccc2)n1

IC50 [1]: < 0.1 µM
SMILES: COCCCc1cc(Cl)c(Cl)cc1NC(=O)Nc1c(C)c(-c2cnn(C)c2)nn1-c1ccccc1

IC50 (Beta-nerve growth factor): 47 µM | Imax [15]: 100%
SMILES: Cn1c2ccc(NC(=O)c3ccccc3)cc2c(=O)n2nc(C(=O)O)cc12
IC50 [10]: 110 µM | Imax [13]: 65%
